Consider eight compounds from patent US7521569B2, “Process to obtain dibenzylbutyrolactonic lignans, process to obtain synthetic derivatives from lignans bearing anti-Chagas chemoprophylactic and therapeutical activities” (Fundação De Amparo À Pesquisa Do Estado de São Paulo, priority 2002, dated 2009).

Values after ≈ are worked out from the molar mass of the structure shown. Like-named read-outs stand apart in the source and are kept apart here.

In this experiment the test system is blood tripomastigote forms of different lines of Trypanosoma cruzi. Put plainly: Tripanocidal activity: percentual of lysis of blood tripomastigote forms in infected mouse blood. Format: cell-based. As to conditions: for killing at 25 µg/mL / killing at 50 µg/mL / IC50: Trypanosoma cruzi; for killing at 25 µg/mL: read-out: % lysis; for anti-Chagas activity: statement in words. Here is the method:
Evaluation of the tripanocidal activity was made by checking percentual of lysis from blood tripomastigote forms of different lines of Trypanosoma cruzi, isolated from […] of mice on the parasitemic peak. Biological essays have been made on 200 μl titration microplaques containing about […] forms of the parasite in each milliliter of used blood. Substance concentrations as used for evaluation were of 10, 25 and 50 μg/ml, which were solubilized under PBS buffer containing 5% dimethyl sulfoxide. After adding substances, infected blood has been incubated at 4° C. under constant shaking for a 24-hour period. After that period, the quantity of parasites surviving to the action of substances was counted in an optical microscope and in comparison to the negative control group (infected blood, adding the solution used to solubilized substances), calculations concerning the determination of lysis percentual have been made. As a positive control, gentian violet has been used under concentration of 250 μg/ml, as indicated for chemoprophylaxis. All essays have been made in triplicate.
The biological activity protocol as described above is already fully published and used in the scientific field, being therefore standardized regarding tripanocidal activity (chemoprophylaxis and susceptibility evaluation for the parasite).
Various scientific works using this method, which is even presented in the original evaluation work for the biological activity of cubebin, as published by Bastos and contributors in 1999.

The mark [1] stands for this setting: 25 μg/ml, infected blood, 4° C., 24 h.
Setting [2] is: 50 μg/ml, infected blood, 4° C., 24 h.
Setting [3] is: lysis of blood tripomastigotes, 24 h at 4° C., read-out: IC50.

Regarding `O=C1OC[C@H](Cc2ccc3c(c2)OCO3)[C@H]1Cc1ccc2c(c1)OCO2` [Hinokinin], the anti-Chagas activity result was “bear anti-Chagas activity”. Further, under setting [1], the killing at 25 µg/mL is 80.1%. Under setting [2], the killing at 50 µg/mL worked out at 95.4%. Also, the IC50 under setting [3] was found to be 0.9 mg/L (≈ 2.54 µM).

On to `CN(C)c1ccc(C(=C2C=CC(=[N+](C)C)C=C2)c2ccc(N(C)C)cc2)cc1` [Gentian violet, gentian violet, reference compound], for which the “% lysis” value (250 μg/ml (positive control), infected blood, 4° C., 24 h) is listed as 250/100%. In addition, the IC50 under setting [3] came to 76 mg/L.

Take `OC1OC[C@H](Cc2ccc3c(c2)OCO3)[C@H]1Cc1ccc2c(c1)OCO2` (stereo partly drawn) [Cubebin, cubebin]: the anti-Chagas activity result is given as “bear anti-Chagas activity”. Moreover, the killing at 25 µg/mL under setting [1] turned out to be 7.3%. The killing at 50 µg/mL under setting [2] is 52.3%. Besides, the IC50 under setting [3] was 97.6 mg/L (≈ 274 µM).

Take `O=C1OC[C@H](Cc2cc3c(cc2[N+](=O)[O-])OCO3)[C@H]1Cc1cc2c(cc1[N+](=O)[O-])OCO2` [6,6′-Dinitrohinokinin, 6, 6′-Dinitrohinokinin]: the anti-Chagas activity result is recorded as “bear anti-Chagas activity”. Also, the killing at 25 µg/mL (24 h) was 57.6%. Moreover, the killing at 50 µg/mL under setting [2] was found to be 82.8%. Also, the IC50 under setting [3] was found to be 37.1 mg/L (≈ 83.5 µM).

On to `COC1OC[C@H](Cc2ccc3c(c2)OCO3)[C@H]1Cc1ccc2c(c1)OCO2` (stereo partly drawn) [O-methyl cubebin, O-methyl Cubebin], for which the anti-Chagas activity result is reported as “bear anti-Chagas activity”. Further, under setting [1], the killing at 25 µg/mL was 13.9%. Under setting [2], this compound yielded a killing at 50 µg/mL of 62%. Further, the 50% inhibitory concentration (IC50) under setting [3] is 86.3 mg/L (≈ 233 µM).

With `CC(=O)OC1OC[C@H](Cc2ccc3c(c2)OCO3)[C@H]1Cc1ccc2c(c1)OCO2` (stereo partly drawn) [O-acetyl cubebin, O-acetyl Cubebin], the anti-Chagas activity entry is “bear anti-Chagas activity”. The “% lysis” value under setting [2] is 50/100%. In addition, under setting [1], the killing at 25 µg/mL was found to be 76.2%. Under setting [3], the 50% inhibitory concentration (IC50) stood at 16.9 mg/L (≈ 42.4 µM).

With `CN(C)CCOC1OC[C@H](Cc2ccc3c(c2)OCO3)[C@H]1Cc1ccc2c(c1)OCO2` (single isomer, unassigned; (-)) [O-dimethylethylamine cubebin, (−)-O-dimethylethylamine-cubebin], the anti-Chagas activity result was “bear anti-Chagas activity”. The “% lysis” value under setting [2] is 50/100%. For the same compound, under setting [1], the killing at 25 µg/mL amounted to 90.1%. Moreover, the IC50 under setting [3] came out at 3 mg/L (≈ 7.02 µM).

As to `COc1ccc(C[C@H]2C(=O)OC[C@@H]2Cc2ccc3c(c2)OCO3)cc1OC` [Metilpluviatolide, methylpluviatolide], the anti-Chagas activity entry is listed as “bear anti-Chagas activity”. Also, the “% lysis” value under setting [2] is listed as 50/100%. Further, for the setting “24 h”, the IC50 was found to be 1.3 mg/L (≈ 3.51 µM) and the killing at 25 µg/mL turned out to be 99%.

For orientation: IC50 means the concentration at which inhibition is half-maximal.
